According to US6475479B1, “Terpenes for reducing the effect of pheromone on lepidoptera” (BASF Aktiengesellschaft, priority 1995, dated 2002):

What was measured:
Lobesia males [1] = experiment: Outdoor wind tunnels over vine rows, simulated mating disruption; type: in vivo
From the text: In spring 1994 two outdoor wind tunnels were built over a row of vines in each case in an experimental field of the SLFA Neustadt. These were aluminum scaffoldings 2 m high, 2 m wide and 10 m long.
The front and back were covered with mosquito nets made of cotton (mesh width 1.5×1.5 mm); 50μ thick polyethylene film lay over the entire length.
Air was blown into the interior through a ventilator at the front of the tunnel.
Two traps each were attached at a height of approximately 60 cm in the interior of the two wind tunnels on the ventilator side. The traps were lured with E7,Z9-dodecadien-1-yl acetate. Tunnel 1 remained untreated and served as a control. To simulate a mating disruption situation, 10 filter papers were uniformly distributed at various heights (20-120 cm) in tunnel 2 along the row of grapevines. 1 ml of citral solution in silicone oil with a dilution of 10^−1 g/g was in each case added dropwise to these in order to achieve a uniform concentration of the substance in the interior. A specific number of Lobesia males were in each case set free on the sides of the two wind tunnels opposite to the ventilator sides. After the end of the experiment, the Lobesia males captured in the traps were counted and the recapture rate was determined.

Lobesia males [2] = experiment: Laboratory wind tunnel preference test with pheromone-lured electric traps; type: in vivo; conditions: cartridges with 30 μl E7,Z9-dodecadien-1-yl acetate 10^-4 g/g silicone oil plus citral 10^-1 g/g silicone oil, relative to standard (pheromone alone) set equal to one
From the text: Laboratory Wind Tunnel 4 electric traps up to […] in size were installed in a laboratory wind tunnel. As electric traps, commercially available electric insect capture appliances were rebuilt to give recording lure traps. The fluorescent tube normally responsible for the attractant action was replaced by a scent source. To avoid positional effects, the four traps were […]. The wheel rim was rotated by means of a motor having a speed of two revolutions per hour (once around its own axis and back), so that the traps continuously changed position. […] The number of moths trapped in each case was determined daily. By means of the number of moths trapped in the individual traps, the attractiveness of the particular lure was determined (preference test). The influence of various dilutions of E7,Z9-dodecadien-1-yl acetate was determined by setting the number of moths in the most common trap equal to one; the capturing ability of the other traps was calculated relative to this. […] The recapture rate of the standard was set equal to one and that of the traps with the terpene additive was calculated relative to this.

Q: For CC(C)=CCCC(C)=CC=O [citral], which Recapture rate (Lobesia males [1]; ratio of captured to released Lobesia males, traps lured with E7,Z9-dodecadien-1-yl acetate, 10 filter papers each with 1 ml citral solution 10^-1 g/g in silicone oil in the tunnel) is on record?
A: 0.01

Q: What about the “inhibition of the recapture rate” value (Lobesia males [1]; tunnel 2 (citral, 10 filter papers, 1 ml of 10^-1 g/g in silicone oil) versus untreated control tunnel 1) of the same compound?
A: 94.5%

Q: And the “inhibition of the recapture rate” value (Lobesia males [2])?
A: 90%
